Measured values taken from article PMC8667904, “Searching for drug leads targeted to the hydrophobic cleft of dengue virus capsid protein” (Journal of Enzyme Inhibition and Medicinal Chemistry, 2021).

Target: T1, DENVC (dengue virus capsid protein) (Dengue virus 2 Thailand/NGS-C/1944, UniProt P14340)
T1 construct: mature capsid protein C from the N-terminus of the dengue virus genome polyprotein; pET3a, E. coli BL21(DE3)pLysS, heparin column; symmetric homodimer; printed residues reach R100
Experiment: intrinsic tryptophan fluorescence titration, shift of emission maximum
Format: binding

T1 sequence (P14340 1-100): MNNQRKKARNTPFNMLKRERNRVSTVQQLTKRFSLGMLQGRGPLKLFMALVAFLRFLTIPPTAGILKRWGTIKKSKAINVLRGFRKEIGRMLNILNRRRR

Row | Structure (SMILES) | Kd [µM]
1 | N=C(N)NN=Cc1cc(Cl)ccc1O [compound 1, 5-chloro-salicylaldehyde-guanylhydrazone] | 18 ± 4
2 | N=C(N)N/N=C/c1ccc(Br)s1 [compound 4, 5-bromo-thiophene-2-guanylhydrazone] | 20 ± 7
3 | O/N=C/c1cc(Cl)ccc1O [compound 12, 2-hydroxy-5-chloro-benzyloxime] | 23 ± 8
